Measurements as given in ChEMBL document CHEMBL1201862, “PubChem BioAssay data set” (2004).
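Values below derive from 48-hour exposures of cells grown in 96-well plates, with endpoints linearly interpolated between the two concentrations bracketing the appropriate inhibition level. Here, GI50 denotes the concentration required for 50% inhibition of growth.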 Active and inactive are the calls of the source. Cut-off read from the data, not from the text of the source: active = GI50 up to about 1.1 µM and inactive = higher.

Key:
Assay in all cases: growth of human tumour cells (NCI), 48 h
786-0 = tested on: 786-0
A498 = tested on: A498
A549 = tested on: A549
ACHN = tested on: ACHN
BT-549 = tested on: BT-549
CAKI-1 = tested on: CAKI-1
CCRF-CEM = tested on: CCRF-CEM
COLO 205 = tested on: COLO 205
DU-145 = tested on: DU-145
HCC 2998 = tested on: HCC 2998
HCT-116 = tested on: HCT-116
HCT-15 = tested on: HCT-15
HL-60 = tested on: HL-60
HOP-62 = tested on: HOP-62
HOP-92 = tested on: HOP-92
HT-29 = tested on: HT-29
Hs-578T = tested on: Hs-578T
IGROV-1 = tested on: IGROV-1
K562 = tested on: K562
KM12 = tested on: KM12
LOX IMVI = tested on: LOX IMVI
M14 = tested on: M14
MCF7 = tested on: MCF7
MDA-MB-231 = tested on: MDA-MB-231
MDA-MB-435 = tested on: MDA-MB-435
MDA-N = tested on: MDA-N
MOLT-4 = tested on: MOLT-4
Malme-3M = tested on: Malme-3M
NCI-H226 = tested on: NCI-H226
NCI-H23 = tested on: NCI-H23
NCI-H460 = tested on: NCI-H460
NCI-H522 = tested on: NCI-H522
NCI/ADR-RES = tested on: NCI/ADR-RES
OVCAR-3 = tested on: OVCAR-3
OVCAR-4 = tested on: OVCAR-4
OVCAR-5 = tested on: OVCAR-5
OVCAR-8 = tested on: OVCAR-8
PC-3 = tested on: PC-3
RPMI-8226 = tested on: RPMI-8226
RXF 393 = tested on: RXF 393
SF-268 = tested on: SF-268
SF-295 = tested on: SF-295
SF-539 = tested on: SF-539
SK-MEL-28 = tested on: SK-MEL-28
SK-MEL-2 = tested on: SK-MEL-2
SK-MEL-5 = tested on: SK-MEL-5
SN12C = tested on: SN12C
SNB-19 = tested on: SNB-19
SNB-75 = tested on: SNB-75
SR = tested on: SR
SW-620 = tested on: SW-620
T47D = tested on: T47D
TK-10 = tested on: TK-10
U-251 = tested on: U-251
UACC-257 = tested on: UACC-257
UACC-62 = tested on: UACC-62
UO-31 = tested on: UO-31
DLD-1 = tested on: DLD-1
DMS-273 = tested on: DMS-273
EKVX = tested on: EKVX
KM-20L2 = tested on: KM-20L2
SK-OV-3 = tested on: SK-OV-3
SNB-78 = tested on: SNB-78

Measured: GI50

Cc1ccc2c(c1)[nH]c(=S)n2/C=C1\C(=O)Oc2ccccc2C1=O
44.9 µM: HCT-15
inactive: 786-0 42.8 µM | A498 49.1 µM | A549 77.4 µM | ACHN 36 µM | BT-549 45.7 µM | CAKI-1 19.6 µM | CCRF-CEM 34.8 µM | COLO 205 99.3 µM | DU-145 41.3 µM | HCC 2998 > 100 µM | HCT-116 44.9 µM | HL-60 55 µM | HOP-62 51.3 µM | HOP-92 39 µM | HT-29 57.5 µM | Hs-578T 25.5 µM | IGROV-1 39 µM | K562 52.2 µM | KM12 84.5 µM | LOX IMVI 70 µM | M14 39.8 µM | MCF7 > 100 µM | MDA-MB-231 50.5 µM | MDA-MB-435 61.8 µM | MDA-N 90.6 µM | MOLT-4 38.2 µM | Malme-3M 34.6 µM | NCI-H226 > 100 µM | NCI-H23 70.8 µM | NCI-H460 44.1 µM | NCI-H522 38.7 µM | NCI/ADR-RES 56.2 µM | OVCAR-3 24.4 µM | OVCAR-4 64.1 µM | OVCAR-5 > 100 µM | OVCAR-8 65.8 µM | PC-3 76.7 µM | RPMI-8226 65.2 µM | RXF 393 30.5 µM | SF-268 55.7 µM | SF-295 > 100 µM | SF-539 69.7 µM | SK-MEL-28 47.3 µM | SK-MEL-2 > 100 µM | SK-MEL-5 40.6 µM | SN12C 59.4 µM | SNB-19 86.5 µM | SNB-75 38.4 µM | SR 71.6 µM | SW-620 52.6 µM | T47D 89.1 µM | TK-10 > 100 µM | U-251 53.1 µM | UACC-257 82 µM | UACC-62 13.1 µM | UO-31 30.2 µM

O=C1c2cccc(NCCCNCCO)c2C(=O)c2cccc(NCCCNCCO)c21
active: CCRF-CEM 0.701 µM | HCC 2998 0.9 µM | Hs-578T 0.627 µM | MCF7 0.325 µM | MOLT-4 0.769 µM | NCI-H522 0.373 µM | SN12C 0.935 µM
8.99 µM: HCT-15
inactive: 786-0 2.08 µM | A498 2.8 µM | A549 2 µM | ACHN 2.08 µM | BT-549 2.05 µM | COLO 205 1.8 µM | DLD-1 2.34 µM | DMS-273 2.31 µM | DU-145 2.62 µM | EKVX 2.94 µM | HL-60 1.27 µM | HOP-62 1.96 µM | HOP-92 1.55 µM | HT-29 2.02 µM | IGROV-1 2.81 µM | KM-20L2 2.75 µM | KM12 2.12 µM | LOX IMVI 2.29 µM | M14 3.61 µM | MDA-MB-231 1.42 µM | MDA-MB-435 1.67 µM | MDA-N 1.71 µM | NCI-H23 1.81 µM | NCI-H460 1.68 µM | NCI/ADR-RES 13.7 µM | OVCAR-3 3.05 µM | OVCAR-5 2.31 µM | OVCAR-8 2.16 µM | PC-3 2.41 µM | RPMI-8226 2.44 µM | RXF 393 2.13 µM | SF-539 1.49 µM | SK-MEL-28 1.83 µM | SK-MEL-2 1.85 µM | SK-MEL-5 2 µM | SK-OV-3 2.25 µM | SNB-19 1.15 µM | SNB-78 3.46 µM | SW-620 2.4 µM | T47D 3.27 µM | TK-10 3.85 µM | UACC-257 6.08 µM | UACC-62 2.01 µM | UO-31 9.59 µM
